Source: ChEMBL document CHEMBL5321272 (J Med Chem, 2023)

target: T1, Serine/threonine-protein kinase Chk1 (Homo sapiens, UniProt O14757); assay: not given; conditions: not given
T1 sequence (O14757 whole entry): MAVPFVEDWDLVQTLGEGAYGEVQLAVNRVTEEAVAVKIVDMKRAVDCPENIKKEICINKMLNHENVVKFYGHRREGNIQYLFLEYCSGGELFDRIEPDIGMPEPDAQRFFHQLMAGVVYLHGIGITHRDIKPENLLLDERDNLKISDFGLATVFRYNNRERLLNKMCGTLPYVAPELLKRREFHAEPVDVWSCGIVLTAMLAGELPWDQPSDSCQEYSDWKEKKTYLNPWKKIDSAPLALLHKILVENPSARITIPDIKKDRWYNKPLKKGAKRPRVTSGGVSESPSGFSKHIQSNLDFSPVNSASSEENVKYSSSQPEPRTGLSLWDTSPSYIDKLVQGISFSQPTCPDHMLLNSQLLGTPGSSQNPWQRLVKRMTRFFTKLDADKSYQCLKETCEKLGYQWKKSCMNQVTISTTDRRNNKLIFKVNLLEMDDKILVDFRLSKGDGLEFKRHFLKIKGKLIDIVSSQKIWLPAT

| Structure (SMILES) | IC50 |
| --- | --- |
| Cn1ncc2cc(Nc3ncc(C(F)(F)F)c(N[C@H]4CC[C@@H](N)CC4)n3)ccc2c1=O | 58.5 nM |
| CC(C)(O)CC(=O)N1CCc2cc(Nc3ncc(C(F)(F)F)c(NC[C@@H]4CCCNC4)n3)ccc2C1 | 336 nM |
| CC(C)(O)CC(=O)N1CCc2cc(Nc3ncc(C(F)(F)F)c(NCCCCCN)n3)ccc2C1 | 159 nM |
| CC(C)(O)C(=O)N1CCc2nc(Nc3ncc(C(F)(F)F)c(N[C@H]4CC[C@@H](N)CC4)n3)ccc2C1 | 250 nM |
| CC(=O)N1CCc2nc(Nc3ncc(C(F)(F)F)c(N[C@H]4CC[C@@H](N)CC4)n3)ccc2C1 | 301 nM |
| CC(C)(O)CC(=O)N1CCc2cc(Nc3ncc(C(F)(F)F)c(NCC(C)(C)CN)n3)ccc2C1 | 1060 nM |
| C[C@H](O)C(=O)N1CCc2cc(Nc3ncc(C(F)(F)F)c(N[C@H]4CC[C@@H](N)CC4)n3)ccc2C1 | 5.1 nM |
| CC(C)(O)Cn1ccc2cc(Nc3ncc(C(F)(F)F)c(NC4CC5(CNC5)C4)n3)ccc2c1=O | 80.1 nM |
| CC(C)(O)CC(=O)N1CCc2cc(Nc3ncc(C(F)(F)F)c(N[C@H]4CC[C@H](N)CC4)n3)ccc2C1 | 96 nM |
| CC(C)(O)CC(=O)N1CCc2cc(Nc3ncc(C(F)(F)F)c(N[C@@H]4CCCNC4)n3)ccc2C1 | 35.2 nM |
| CC(C)(O)CC(=O)N1CCc2cc(Nc3ncc(C(F)(F)F)c(NCC4CCNCC4)n3)ccc2C1 | 87.3 nM |
| CC(=O)N1CCc2ccc(Nc3ncc(C(F)(F)F)c(N[C@H]4CC[C@@H](N)CC4)n3)cc21 | 58 nM |
| CC(C)(O)CC(=O)N1CCc2cc(Nc3ncc(C(F)(F)F)c(NC[C@H]4CCCNC4)n3)ccc2C1 | 86.5 nM |
| CC(C)(N)CNc1nc(Nc2ccc3c(c2)CCN(C(=O)CC(C)(C)O)C3)ncc1C(F)(F)F | 2000 nM |
| CC(C)(O)CC(=O)N1CCc2cc(Nc3ncc(C(F)(F)F)c(NCCCCN)n3)ccc2C1 | 41.1 nM |
| CC(=O)NCCCNc1nc(Nc2ccc3c(c2)CCN(C(=O)CC(C)(C)O)C3)ncc1C(F)(F)F | 765 nM |
| CC(C)(O)C(=O)N1CCc2cc(Nc3ncc(C(F)(F)F)c(N[C@H]4CC[C@@H](N)CC4)n3)ccc2C1 | 8.6 nM |
| CC(C)(O)CC(=O)N1CCc2cc(Nc3ncc(C(F)(F)F)c(NCCCNS(C)(=O)=O)n3)ccc2C1 | 1950 nM |
| CC(C)(O)CC(=O)N1CCc2cc(Nc3ncc(C(F)(F)F)c(NC4CCNCC4)n3)ccc2C1 | 227 nM |
| Cn1cnc2cc(Nc3ncc(C(F)(F)F)c(N[C@H]4CC[C@@H](N)CC4)n3)ccc2c1=O | 223 nM |
| CC(C)(O)CC(=O)N1CCc2cc(Nc3ncc(C(F)(F)F)c(NCCCN)n3)ccc2C1 | 34.5 nM |

target: Receptor-type tyrosine-protein kinase FLT3 (Homo sapiens, UniProt P36888, D835Y); assay: not given; conditions: not given

| Structure (SMILES) | IC50 |
| --- | --- |
| Cn1ncc2cc(Nc3ncc(C(F)(F)F)c(N[C@H]4CC[C@@H](N)CC4)n3)ccc2c1=O | 4.22 nM |
| CC(C)(O)CC(=O)N1CCc2cc(Nc3ncc(C(F)(F)F)c(NC[C@@H]4CCCNC4)n3)ccc2C1 | 24.1 nM |
| CC(C)(O)CC(=O)N1CCc2cc(Nc3ncc(C(F)(F)F)c(NCCCCCN)n3)ccc2C1 | 3.19 nM |
| CC(C)(O)C(=O)N1CCc2nc(Nc3ncc(C(F)(F)F)c(N[C@H]4CC[C@@H](N)CC4)n3)ccc2C1 | 55.4 nM |
| CC(=O)N1CCc2nc(Nc3ncc(C(F)(F)F)c(N[C@H]4CC[C@@H](N)CC4)n3)ccc2C1 | 61.4 nM |
| CC(C)(O)CC(=O)N1CCc2cc(Nc3ncc(C(F)(F)F)c(NCC(C)(C)CN)n3)ccc2C1 | 91.4 nM |
| C[C@H](O)C(=O)N1CCc2cc(Nc3ncc(C(F)(F)F)c(N[C@H]4CC[C@@H](N)CC4)n3)ccc2C1 | 0.92 nM |
| CC(C)(O)Cn1ccc2cc(Nc3ncc(C(F)(F)F)c(NC4CC5(CNC5)C4)n3)ccc2c1=O | 26.6 nM |
| CC(C)(O)CC(=O)N1CCc2cc(Nc3ncc(C(F)(F)F)c(N[C@H]4CC[C@H](N)CC4)n3)ccc2C1 | 12 nM |
| CC(C)(O)CC(=O)N1CCc2cc(Nc3ncc(C(F)(F)F)c(N[C@@H]4CCCNC4)n3)ccc2C1 | 4.03 nM |
| CC(C)(O)CC(=O)N1CCc2cc(Nc3ncc(C(F)(F)F)c(NCC4CCNCC4)n3)ccc2C1 | 10.4 nM |
| CC(=O)N1CCc2ccc(Nc3ncc(C(F)(F)F)c(N[C@H]4CC[C@@H](N)CC4)n3)cc21 | 9.84 nM |
| CC(C)(O)CC(=O)N1CCc2cc(Nc3ncc(C(F)(F)F)c(NC[C@H]4CCCNC4)n3)ccc2C1 | 12 nM |
| CC(C)(N)CNc1nc(Nc2ccc3c(c2)CCN(C(=O)CC(C)(C)O)C3)ncc1C(F)(F)F | 166 nM |
| CC(C)(O)CC(=O)N1CCc2cc(Nc3ncc(C(F)(F)F)c(NCCCCN)n3)ccc2C1 | 1.5 nM |
| CC(=O)NCCCNc1nc(Nc2ccc3c(c2)CCN(C(=O)CC(C)(C)O)C3)ncc1C(F)(F)F | 16.1 nM |
| CC(C)(O)C(=O)N1CCc2cc(Nc3ncc(C(F)(F)F)c(N[C@H]4CC[C@@H](N)CC4)n3)ccc2C1 | 1.53 nM |
| CC(C)(O)CC(=O)N1CCc2cc(Nc3ncc(C(F)(F)F)c(NCCCNS(C)(=O)=O)n3)ccc2C1 | 18.1 nM |
| CC(C)(O)CC(=O)N1CCc2cc(Nc3ncc(C(F)(F)F)c(NC4CCNCC4)n3)ccc2C1 | 40.9 nM |
| Cn1cnc2cc(Nc3ncc(C(F)(F)F)c(N[C@H]4CC[C@@H](N)CC4)n3)ccc2c1=O | 8.8 nM |
| CC(C)(O)CC(=O)N1CCc2cc(Nc3ncc(C(F)(F)F)c(NCCCN)n3)ccc2C1 | 3.79 nM |

test system: not listed separately; assay: Selectivity ratio of IC50 for inhibition of c-KIT (unknown origin) to IC50 for inhibition of FLT3 D835Y mutant (unknown origin); conditions: not given

| Structure (SMILES) | Ratio IC50 |
| --- | --- |
| C[C@H](O)C(=O)N1CCc2cc(Nc3ncc(C(F)(F)F)c(N[C@H]4CC[C@@H](N)CC4)n3)ccc2C1 | 766 |
| CC(C)(O)C(=O)N1CCc2cc(Nc3ncc(C(F)(F)F)c(N[C@H]4CC[C@@H](N)CC4)n3)ccc2C1 | 589 |

test system: MV4-11; assay: cells; conditions: Homo sapiens, MV4-11, 72 h
Description: Antiproliferative activity against human MV4-11 cells assessed as reduction in cell viability incubated for 72 hrs by CellTiter 96 Aqueous One Solution Cell Proliferation Assay

| Structure (SMILES) | IC50 |
| --- | --- |
| Cn1ncc2cc(Nc3ncc(C(F)(F)F)c(N[C@H]4CC[C@@H](N)CC4)n3)ccc2c1=O | 1.36 nM |
| CC(C)(O)CC(=O)N1CCc2cc(Nc3ncc(C(F)(F)F)c(NC[C@@H]4CCCNC4)n3)ccc2C1 | 8.26 nM |
| CC(C)(O)CC(=O)N1CCc2cc(Nc3ncc(C(F)(F)F)c(NCCCCCN)n3)ccc2C1 | 12.7 nM |
| CC(C)(O)C(=O)N1CCc2nc(Nc3ncc(C(F)(F)F)c(N[C@H]4CC[C@@H](N)CC4)n3)ccc2C1 | 9.51 nM |
| CC(=O)N1CCc2nc(Nc3ncc(C(F)(F)F)c(N[C@H]4CC[C@@H](N)CC4)n3)ccc2C1 | 1.45 nM |
| CC(C)(O)CC(=O)N1CCc2cc(Nc3ncc(C(F)(F)F)c(NCC(C)(C)CN)n3)ccc2C1 | 27.9 nM |
| C[C@H](O)C(=O)N1CCc2cc(Nc3ncc(C(F)(F)F)c(N[C@H]4CC[C@@H](N)CC4)n3)ccc2C1 | 0.28 nM |
| CC(C)(O)Cn1ccc2cc(Nc3ncc(C(F)(F)F)c(NC4CC5(CNC5)C4)n3)ccc2c1=O | 66.2 nM |
| CC(C)(O)CC(=O)N1CCc2cc(Nc3ncc(C(F)(F)F)c(N[C@H]4CC[C@H](N)CC4)n3)ccc2C1 | 5.89 nM |
| CC(C)(O)CC(=O)N1CCc2cc(Nc3ncc(C(F)(F)F)c(N[C@@H]4CCCNC4)n3)ccc2C1 | 2.26 nM |
| CC(C)(O)CC(=O)N1CCc2cc(Nc3ncc(C(F)(F)F)c(NCC4CCNCC4)n3)ccc2C1 | 6.79 nM |
| CC(=O)N1CCc2ccc(Nc3ncc(C(F)(F)F)c(N[C@H]4CC[C@@H](N)CC4)n3)cc21 | 36 nM |
| CC(C)(O)CC(=O)N1CCc2cc(Nc3ncc(C(F)(F)F)c(NC[C@H]4CCCNC4)n3)ccc2C1 | 2.71 nM |
| CC(C)(N)CNc1nc(Nc2ccc3c(c2)CCN(C(=O)CC(C)(C)O)C3)ncc1C(F)(F)F | 39.7 nM |
| CC(C)(O)CC(=O)N1CCc2cc(Nc3ncc(C(F)(F)F)c(NCCCCN)n3)ccc2C1 | 0.61 nM |
| CC(=O)NCCCNc1nc(Nc2ccc3c(c2)CCN(C(=O)CC(C)(C)O)C3)ncc1C(F)(F)F | 44.5 nM |
| N#Cc1cnc(Nc2cc(NC[C@H]3CNCCO3)c(C(F)(F)F)cn2)cn1 [SRA-737] | 245 nM |
| CC(C)(O)C(=O)N1CCc2cc(Nc3ncc(C(F)(F)F)c(N[C@H]4CC[C@@H](N)CC4)n3)ccc2C1 | 0.38 nM |
| CC(C)(O)CC(=O)N1CCc2cc(Nc3ncc(C(F)(F)F)c(NC4CCNCC4)n3)ccc2C1 | 22.4 nM |
| Cn1cnc2cc(Nc3ncc(C(F)(F)F)c(N[C@H]4CC[C@@H](N)CC4)n3)ccc2c1=O | 1.77 nM |
| CC(C)(O)CC(=O)N1CCc2cc(Nc3ncc(C(F)(F)F)c(NCCCN)n3)ccc2C1 | 2.38 nM |

target: hERG (KCNH2) (Homo sapiens, UniProt Q12809); assay: Inhibition of hERG expressed in HEK293 cells at 20 uM by whole cell patch clamp analysis; format: toxicity, cell-based; conditions: HEK293 cells expressing hERG
Sequence (Q12809 whole entry): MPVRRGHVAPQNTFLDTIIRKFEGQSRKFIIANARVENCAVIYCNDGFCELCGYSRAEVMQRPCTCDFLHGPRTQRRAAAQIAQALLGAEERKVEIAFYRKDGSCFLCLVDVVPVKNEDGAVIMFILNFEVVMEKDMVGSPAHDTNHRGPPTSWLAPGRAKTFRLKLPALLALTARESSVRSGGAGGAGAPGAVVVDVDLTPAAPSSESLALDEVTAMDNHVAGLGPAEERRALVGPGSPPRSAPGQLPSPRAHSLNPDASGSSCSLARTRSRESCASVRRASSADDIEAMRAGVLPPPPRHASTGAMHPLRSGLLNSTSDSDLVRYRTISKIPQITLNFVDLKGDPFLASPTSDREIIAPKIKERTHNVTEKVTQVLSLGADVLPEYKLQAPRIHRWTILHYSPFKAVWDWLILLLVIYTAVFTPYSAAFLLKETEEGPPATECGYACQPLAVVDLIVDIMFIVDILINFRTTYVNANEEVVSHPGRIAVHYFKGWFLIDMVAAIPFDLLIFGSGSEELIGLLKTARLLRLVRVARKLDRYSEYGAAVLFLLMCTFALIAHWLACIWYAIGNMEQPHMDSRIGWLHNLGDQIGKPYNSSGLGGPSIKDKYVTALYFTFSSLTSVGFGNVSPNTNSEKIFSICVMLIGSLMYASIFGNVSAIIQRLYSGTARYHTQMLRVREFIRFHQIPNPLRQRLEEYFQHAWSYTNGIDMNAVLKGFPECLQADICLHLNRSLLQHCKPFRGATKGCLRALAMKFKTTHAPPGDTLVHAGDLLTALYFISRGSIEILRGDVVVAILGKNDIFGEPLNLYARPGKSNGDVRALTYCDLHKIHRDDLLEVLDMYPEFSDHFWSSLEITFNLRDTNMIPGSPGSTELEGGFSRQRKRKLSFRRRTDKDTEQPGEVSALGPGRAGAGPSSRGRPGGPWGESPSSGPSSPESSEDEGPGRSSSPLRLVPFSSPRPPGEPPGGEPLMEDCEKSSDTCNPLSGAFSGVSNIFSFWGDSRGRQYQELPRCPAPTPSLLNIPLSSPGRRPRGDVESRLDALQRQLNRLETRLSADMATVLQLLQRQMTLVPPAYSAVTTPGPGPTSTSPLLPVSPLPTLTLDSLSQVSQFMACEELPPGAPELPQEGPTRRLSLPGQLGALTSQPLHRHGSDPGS

| Structure (SMILES) | inhibition at 20 µM |
| --- | --- |
| Cn1ncc2cc(Nc3ncc(C(F)(F)F)c(N[C@H]4CC[C@@H](N)CC4)n3)ccc2c1=O | 81.9% |
| C[C@H](O)C(=O)N1CCc2cc(Nc3ncc(C(F)(F)F)c(N[C@H]4CC[C@@H](N)CC4)n3)ccc2C1 | 13.6% |
| CC(C)(O)CC(=O)N1CCc2cc(Nc3ncc(C(F)(F)F)c(N[C@@H]4CCCNC4)n3)ccc2C1 | 35% |
| CC(C)(O)C(=O)N1CCc2cc(Nc3ncc(C(F)(F)F)c(N[C@H]4CC[C@@H](N)CC4)n3)ccc2C1 | 17.7% |
| Cn1cnc2cc(Nc3ncc(C(F)(F)F)c(N[C@H]4CC[C@@H](N)CC4)n3)ccc2c1=O | 48.3% |
| CC(C)(O)CC(=O)N1CCc2cc(Nc3ncc(C(F)(F)F)c(NCCCN)n3)ccc2C1 | 11.2% |

target: Mast/stem cell growth factor receptor Kit (Homo sapiens, UniProt P10721); assay: Inhibition of c-KIT (unknown origin) using peptide substrate TK-S and ATP as substrate incubated for 1 hr by HTRF assay; format: toxicity; conditions: not given
Sequence (P10721 whole entry): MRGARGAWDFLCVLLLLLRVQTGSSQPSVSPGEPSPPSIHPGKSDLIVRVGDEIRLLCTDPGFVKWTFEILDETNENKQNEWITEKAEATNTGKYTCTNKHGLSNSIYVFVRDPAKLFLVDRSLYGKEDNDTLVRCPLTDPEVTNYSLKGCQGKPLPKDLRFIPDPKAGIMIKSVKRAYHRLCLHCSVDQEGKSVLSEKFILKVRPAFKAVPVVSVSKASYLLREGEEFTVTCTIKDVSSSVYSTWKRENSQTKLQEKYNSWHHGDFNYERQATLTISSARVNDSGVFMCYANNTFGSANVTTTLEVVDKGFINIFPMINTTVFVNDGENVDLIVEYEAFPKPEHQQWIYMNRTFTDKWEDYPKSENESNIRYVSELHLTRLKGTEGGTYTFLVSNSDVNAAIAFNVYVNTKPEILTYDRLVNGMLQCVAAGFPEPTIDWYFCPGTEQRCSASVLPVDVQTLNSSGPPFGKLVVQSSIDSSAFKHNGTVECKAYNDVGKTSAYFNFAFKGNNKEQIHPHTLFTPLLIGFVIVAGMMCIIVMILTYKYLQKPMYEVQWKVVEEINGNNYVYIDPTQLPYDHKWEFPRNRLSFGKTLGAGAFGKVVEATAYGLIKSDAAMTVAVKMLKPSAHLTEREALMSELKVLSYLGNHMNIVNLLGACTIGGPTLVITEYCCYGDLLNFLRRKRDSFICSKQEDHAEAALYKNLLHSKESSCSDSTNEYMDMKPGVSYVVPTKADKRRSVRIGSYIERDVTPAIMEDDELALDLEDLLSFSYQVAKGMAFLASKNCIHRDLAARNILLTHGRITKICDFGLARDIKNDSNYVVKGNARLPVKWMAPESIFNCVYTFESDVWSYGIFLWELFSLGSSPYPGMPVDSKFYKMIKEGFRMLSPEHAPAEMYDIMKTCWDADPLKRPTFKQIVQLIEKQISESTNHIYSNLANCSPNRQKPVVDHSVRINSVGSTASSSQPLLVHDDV

| Structure (SMILES) | IC50 |
| --- | --- |
| C[C@H](O)C(=O)N1CCc2cc(Nc3ncc(C(F)(F)F)c(N[C@H]4CC[C@@H](N)CC4)n3)ccc2C1 | 704 nM |
| CC(C)(O)C(=O)N1CCc2cc(Nc3ncc(C(F)(F)F)c(N[C@H]4CC[C@@H](N)CC4)n3)ccc2C1 | 902 nM |
